In the supplement of paper PMC13380429:

Legend:
Settings in all cases: 72 h
HepG2 [1] = experiment: relative viability EC50 (midpoint between 100% and the lowest measured viability); higher = less toxic
Caco-2 [2] = experiment: as above
Calu-3 [3] = experiment: as above
Vero E6 [4] = experiment: as above
U2OS [5] = experiment: as above
HepG2 [6] = experiment: cell viability relative to DMSO; higher = less toxic
Caco-2 [7] = experiment: as above
Calu-3 [8] = experiment: as above
Vero E6 [9] = experiment: as above
U2OS [10] = experiment: as above
HepG2 [11] = experiment: drug sensitivity score (DSS) for viability; higher = more toxic; extreme values may be limits of the assay
Caco-2 [12] = experiment: as above
Calu-3 [13] = experiment: as above
Vero E6 [14] = experiment: as above
U2OS [15] = experiment: as above

| SMILES | relative viability EC50 (HepG2 [1]) [µM] | relative viability EC50 (Caco-2 [2]) [µM] | relative viability EC50 (Calu-3 [3]) [µM] | relative viability EC50 (Vero E6 [4]) [µM] | relative viability EC50 (U2OS [5]) [µM] | cell viability (HepG2 [6]; 1 nM) [%] | cell viability (HepG2 [6]; 10 nM) [%] | cell viability (HepG2 [6]; 100 nM) [%] | cell viability (HepG2 [6]; 1000 nM) [%] | cell viability (HepG2 [6]; 10000 nM) [%] | cell viability (Caco-2 [7]; 1 nM) [%] | cell viability (Caco-2 [7]; 10 nM) [%] | cell viability (Caco-2 [7]; 100 nM) [%] | cell viability (Caco-2 [7]; 1000 nM) [%] | cell viability (Caco-2 [7]; 10000 nM) [%] | cell viability (Calu-3 [8]; 1 nM) [%] | cell viability (Calu-3 [8]; 10 nM) [%] | cell viability (Calu-3 [8]; 100 nM) [%] | cell viability (Calu-3 [8]; 1000 nM) [%] | cell viability (Calu-3 [8]; 10000 nM) [%] | cell viability (Vero E6 [9]; 1 nM) [%] | cell viability (Vero E6 [9]; 10 nM) [%] | cell viability (Vero E6 [9]; 100 nM) [%] | cell viability (Vero E6 [9]; 1000 nM) [%] | cell viability (Vero E6 [9]; 10000 nM) [%] | cell viability (U2OS [10]; 1 nM) [%] | cell viability (U2OS [10]; 10 nM) [%] | cell viability (U2OS [10]; 100 nM) [%] | cell viability (U2OS [10]; 1000 nM) [%] | cell viability (U2OS [10]; 10000 nM) [%] | drug sensitivity score (HepG2 [11]) | drug sensitivity score (Caco-2 [12]) | drug sensitivity score (Calu-3 [13]) | drug sensitivity score (Vero E6 [14]) | drug sensitivity score (U2OS [15]) |
| --- | --- | --- | --- | --- | --- | --- | --- | --- | --- | --- | --- | --- | --- | --- | --- | --- | --- | --- | --- | --- | --- | --- | --- | --- | --- | --- | --- | --- | --- | --- | --- | --- | --- | --- | --- |
| O=C(CO)[C@@H](O)[C@@H](O)[C@H](O)CO [tagatose] | > 10 | > 10 | > 10 | > 10 | > 10 | 101 | 91.6 | 97.6 | 94.9 | 106 | 98.5 | 94.4 | 103 | 106 | 99.3 | 98.4 | 99.6 | 99.7 | 97 | 102 | 93.7 | 94.5 | 92.1 | 85.3 | 110 | 89.1 | 95.3 | 92.7 | 102 | 107 | 0 | 0 | 0 | 0 | 0 |
| CC(C)(COP(=O)(O)OP(=O)(O)OC[C@H]1O[C@@H](n2cnc3c(N)ncnc32)[C@H](O)[C@@H]1OP(=O)(O)O)[C@@H](O)C(=O)NCCC(=O)NCCS [coenzyme-A] | > 10 | > 10 | > 10 | > 10 | > 10 | 109 | 96.6 | 111 | 96 | 98.4 | 100 | 100 | 102 | 97.8 | 110 | 100 | 101 | 96.7 | 99.8 | 102 | 108 | 102 | 92.4 | 104 | 98.9 | 96.9 | 100 | 103 | 103 | 104 | 0 | 0 | 0 | 0 | 0 |
| NC(=O)c1cccc(-c2cccc(OC(=O)NC3CCCCC3)c2)c1 [URB597] | > 10 | > 10 | > 10 | > 10 | > 10 | 104 | 105 | 104 | 96.9 | 92.3 | 93.9 | 98.7 | 93.9 | 103 | 89.1 | 86.4 | 94.6 | 92.7 | 88.4 | 99.1 | 107 | 98.5 | 104 | 96.7 | 103 | 94 | 102 | 98.5 | 105 | 98.8 | 0 | 0 | 0 | 0 | 0 |
| O=C(c1ccc(CN2CCOCC2)cc1)N1CCN(C2CC2)CC1 [bavisant] | > 10 | > 10 | > 10 | > 10 | > 10 | 108 | 104 | 90.6 | 107 | 94.4 | 104 | 102 | 97.7 | 89.6 | 98.9 | 86.9 | 95 | 87.1 | 88.9 | 89.2 | 109 | 104 | 104 | 104 | 99.6 | 102 | 97.6 | 103 | 101 | 99.8 | 0 | 0 | 0.5 | 0 | 0 |
| Cc1c(F)cc(C(=O)NC2CC2)cc1-c1ccc(C(=O)NCC(C)(C)C)cn1 [losmapimod] | > 10 | > 10 | > 10 | > 10 | > 10 | 97.9 | 99.8 | 105 | 103 | 87.3 | 97 | 90.8 | 90.8 | 83.4 | 80.6 | 110 | 94.4 | 90.5 | 84 | 87.7 | 95.8 | 101 | 92.8 | 88.7 | 80.5 | 102 | 96.5 | 97.2 | 90.3 | 92.5 | 0 | 2.4 | 2.1 | 1.3 | 0 |
| CC(=O)c1ccc(NS(C)(=O)=O)c(Oc2ccc(F)cc2F)c1 [FK-3311] | > 10 | > 10 | > 10 | > 10 | > 10 | 98.3 | 107 | 98.6 | 99.5 | 87.3 | 99 | 90.1 | 96.9 | 94 | 95.8 | 110 | 93.1 | 103 | 109 | 114 | 98.3 | 101 | 96.2 | 102 | 92.8 | 104 | 98.1 | 98.7 | 97.2 | 102 | 0.1 | 0 | 0 | 0 | 0 |
| CC(C)Cn1cnc2c(N)nc3ccccc3c21 [imiquimod] | > 10 | > 10 | > 10 | > 10 | > 10 | 93.6 | 95.5 | 100 | 109 | 112 | 96.4 | 92.9 | 105 | 97.7 | 100 | 103 | 96 | 102 | 94.5 | 103 | 93.1 | 93.2 | 99 | 88.9 | 100 | 92.7 | 101 | 94.3 | 100 | 105 | 0 | 0 | 0 | 0 | 0 |
| O=[N+]([O-])c1c(Nc2cc(F)cc(Cl)c2)ccc2nonc12 [TC-S-7009] | > 10 | > 10 | > 10 | > 10 | > 10 | 93.1 | 103 | 95.3 | 85.7 | 94.5 | 99.2 | 96.3 | 97.2 | 95.9 | 92.9 | 102 | 98.1 | 104 | 106 | 104 | 102 | 102 | 96.4 | 99.5 | 95.8 | 100 | 106 | 97.9 | 105 | 95.9 | 0 | 0 | 0 | 0 | 0 |
| COC(=O)N/N=C/c1c[n+]([O-])c2ccccc2[n+]1[O-] [carbadox] | > 10 | > 10 | > 10 | > 10 | > 10 | 110 | 95.4 | 96.1 | 105 | 110 | 90.4 | 81.8 | 92.9 | 92.1 | 88.4 | 93.8 | 84.8 | 95.7 | 105 | 93.2 | 93.7 | 95.8 | 88.9 | 92.6 | 111 | 99.5 | 97.4 | 99.2 | 91.7 | 98.2 | 0 | 0 | 0 | 0 | 0 |
| Cc1nc(Nc2ncc(C(=O)Nc3c(C)cccc3Cl)s2)cc(N2CCN(CCO)CC2)n1 [dasatinib] | 1.62 | 0.201 | 0.0245 | 0.218 | 0.33 | 102 | 99 | 87.1 | 80.6 | 30.1 | 101 | 97.6 | 77 | 45.5 | 33.2 | 95.1 | 72 | 36.6 | 30.2 | 18.1 | 99 | 93.1 | 76.1 | 29.6 | 16.9 | 100 | 93.9 | 85 | 53.9 | 36.8 | 6.2 | 12.9 | 24.7 | 15.9 | 10.3 |
| CC1(c2ccccc2)OC(C(=O)O)=CC1=O (stereo not given) [acifran] | > 10 | > 10 | > 10 | > 10 | > 10 | 90.3 | 91.9 | 97.8 | 108 | 101 | 90.8 | 95.3 | 95.8 | 105 | 98.9 | 94.9 | 93.6 | 85.5 | 95.3 | 99.6 | 98.9 | 96.1 | 96.9 | 98.5 | 98 | 103 | 97.9 | 103 | 97.4 | 104 | 0 | 0 | 0 | 0 | 0 |
| Cc1nc2ccccc2c(-c2ccc3c4c(ccnc24)CCO3)c1[C@H](OC(C)(C)C)C(=O)O | > 10 | > 10 | > 10 | > 10 | > 10 | 103 | 84.3 | 95.2 | 94.4 | 87.1 | 109 | 98.1 | 110 | 113 | 113 | 88.3 | 102 | 85.5 | 109 | 105 | 111 | 99.3 | 102 | 101 | 95.2 | 97.6 | 97.2 | 99 | 101 | 99.1 | 0.1 | 0 | 0 | 0 | 0 |
| COc1ccc(Cl)cc1C(=O)NCCc1ccc(C(=O)O)cc1 [meglitinide] | > 10 | > 10 | > 10 | > 10 | > 10 | 109 | 106 | 110 | 88.7 | 94.2 | 90.9 | 102 | 94.8 | 91.5 | 98.1 | 108 | 103 | 98.1 | 96.8 | 114 | 98.4 | 105 | 100 | 104 | 103 | 101 | 98.2 | 98.6 | 93.4 | 99.6 | 0.3 | 0 | 0 | 0 | 0 |
| Cc1ccc(OC[C@@H](O)[C@H](C)NC(C)C)c2c1CCC2 (racemic) [ICI-118,551] | > 10 | > 10 | > 10 | > 10 | > 10 | 111 | 106 | 100 | 111 | 95.3 | 109 | 103 | 99.2 | 109 | 97.8 | 121 | 98.9 | 109 | 105 | 112 | 98.6 | 94.2 | 101 | 90.5 | 94.1 | 108 | 98.5 | 113 | 100 | 113 | 0 | 0 | 0 | 0 | 0 |
